Measured values taken from patent US12458605B2, “Lipid nanoparticle” (National University Corporation Hokkaido University, priority 2020, dated 2025).
Several values for one entry are separate records, joined by “and”; a condition that tells them apart may be missing. Equal entries are not always repeated.

What was measured:
factor VII (F7) = conditions: mouse liver; lipid as LNP carrier of siRNA; cited from earlier work
[1] = Storage stability of FlucmRNA-loaded LNP at −80, 5, 25 and 40° C.; assay type: physicochemical; conditions: for period for which quality remained good, −80° C.: maximum storage period 1 week; for period for which quality remained good, 5° C. / period for which quality remained good, 25° C. / period for which quality remained good, 40° C. (weeks): maximum storage period 5 weeks
In short: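 FlucmRNA-loaded LNPs held at −80, 5, 25 or 40° C; at each time point size, PDI and encapsulation measured. Quality deemed maintained while size stays within ±20 nm of preparation day, PDI ≤0.2 and encapsulation ≥80%; value is the period meeting all three.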

[2] = Average particle size (ζ-Average) and PDI by dynamic light scattering (Zetasizer Nano ZSP); assay type: physicochemical; conditions: for Particle size (nm), immediately after the preparation: pDNA (eGFP)-loaded LNP
In short: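 Lipid nanoparticles dispersed in PBS(−) were sized by dynamic light scattering, giving the ζ-Average diameter and polydispersity index (PDI).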

F7 = test: In vivo F7 knockdown, plasma F7 enzyme activity (BIOPHEN FVII), Balb/c mice; conditions: i.v. 0.025 mg siRNA/kg, plasma at 24 hours; for F7 enzyme activity (%): untreated mice as 100%
In short: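 Female Balb/c mice, 5 weeks old, received F7 siRNA lipid nanoparticles i.v. at 0.025 mg siRNA/kg; plasma F7 activity measured chromogenically (BIOPHEN FVII) 24 h later. Values are % of untreated mice, also expressed as a ratio to MC3-containing nanoparticles set at 1.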

[3] = siRNA/mRNA encapsulation rate by Ribogreen reagent (section IV); assay type: physicochemical; conditions: for % siRNA encapsulation: F7siRNA-loaded LNP, 50:10:38.5:1.5, N/P ratio 6; for % mRNA encapsulation: FlucmRNA-loaded LNP, 50:10:38.5:1.5
In short: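 LNPs diluted in TE buffer to 8 μg/mL nucleic acid for surface RNA, or to 1.2 μg/mL with 1% Triton X-100 for total RNA. RiboGreen fluorescence (ex 485/em 528 nm) quantified against a Triton-containing standard curve (0-2.5 μg/mL). Encapsulation % = (total − surface)/total × 100.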

liver = test: In vivo Fluc activity of FlucmRNA-loaded LNP by in vivo imaging, liver; conditions: Balb/c mice, FlucmRNA-loaded LNP i.v. 0.1 mg mRNA/kg, 6 hours
In short: (§1)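 Female Balb/c mice, 7 weeks old, received LNP i.v. at 0.1 mg mRNA/kg. At 6 h, luciferin was given via tail vein at 1.5 mg per mouse, and liver and spleen luminescence was imaged as Avg Radiance [p/s/cm2/sr] near 560 nm.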

spleen = test: In vivo Fluc activity of FlucmRNA-loaded LNP by in vivo imaging, spleen; conditions: Balb/c mice, 6 hours; for Fluc activity in the spleen, compared with CL4F6: 0.1 mg mRNA/kg, versus LNP comprising CL4F6 (Tables 5 and 6); for Fluc Activity in spleen: FlucmRNA-loaded LNP i.v. 0.1 mg mRNA/kg
In short: as §1

[4] = pDNA encapsulation rate by Picogreen reagent; assay type: physicochemical; conditions: pDNA (eGFP)-loaded LNP
Experimental: The encapsulation rate of pDNA of the lipid nanoparticles was measured using Picogreen (registered trademark) reagent (Quant-iT™ dsDNA Assay Kit, broad range, manufactured by Thermofisher Scientific). In encapsulation rate measurement of pDNA, the nucleic acid concentration in solution for measuring nanoparticle surface nucleic acid concentration was set at 1.6 μg/mL, the nucleic acid concentration in solution for measuring total nucleic acid concentration […], and the nucleic acid concentration used for calibration curve 0-0.5 μg/mL, and the same method as the method for measuring encapsulation rate of siRNA and mRNA was carried out except that Picogreen (registered trademark) reagent (Quant-iT™ dsDNA Assay Kit, broad range, manufactured by Thermofisher Scientific) was used as measurement reagent. Encapsulation rate %=(nucleic acid concentration in solution for measuring total nucleic acid concentration (μg/mL)−nucleic acid concentration in solution for measuring nanoparticle surface nucleic acid concentration (μg/mL))/(nucleic acid concentration in solution for measuring total nucleic acid concentration (μg/mL))×100. <Results>

[5] = Stability of pDNA-loaded LNP standing at 40° C.; assay type: physicochemical; conditions: for Quality 40° C. 1 M / Quality 40° C. 1 W: pDNA-loaded LNP; for Particle size (nm), 40° C. 1 M / encapsulation rate (%), 40° C. 1 M: pDNA-loaded LNP after standing at 40° C. 1 M; for Particle size (nm), 40° C. 1 W / encapsulation rate (%), 40° C. 1 W: pDNA-loaded LNP after standing at 40° C. 1 W
Experimental: Prepared lipid nanoparticles were allowed to stand at 40° C., and after keeping for each period, they were evaluated whether quality was well remained according to the following criteria: • Good (O): particle size is within +/−20 nm of the particle size immediately after preparation, and PDI is 0.2 or less, and encapsulation rate is 80% or more; • No good (X): particle size is greater than +/−20 nm of the particle size immediately after preparation, or encapsulation rate is less than 80%.
The lipid nanoparticles which remain in good quality with standing at 40° C. for one week or more can be evaluated as having excellent stability.

[6] = F7siRNA-loaded LNP, 50:10:38.5:1.5, N/P ratio 6
[7] = FlucmRNA-loaded LNP, 50:10:38.5:1.5
[8] = FlucmRNA-loaded LNP, lipid:DSPC:cholesterol:DMG-PEG2K 50:10:38.5:1.5

Row | period for which quality remained good, −80° C. [1] [week] | period for which quality remained good, 5° C. [1] [weeks] | period for which quality remained good, 25° C. [1] [weeks] | period for which quality remained good, 40° C. (weeks) [1] | ζ-Average (nm) [2, 6] | PDI [2, 7] | ζ-Average (nm) [2, 8] | % siRNA encapsulation [3] | % mRNA encapsulation [3] | encapsulation rate (%), immediately after the preparation [4] [%] | PDI [2, 6] | Particle size (nm), immediately after the preparation ([2]; 50:10:38.5:1.5) [nm] | Quality 40° C. 1 M [5] | Quality 40° C. 1 W [5] | Particle size (nm), 40° C. 1 M [5] [nm] | Compound | ED50 in F7 knockdown (factor VII (F7)) [mg siRNA/kg] | F7 enzyme activity (%) (F7) | Fluc Activity in liver (liver) | Fluc activity in the spleen, compared with CL4F6 (spleen) | Fluc Activity in spleen (spleen) | other results
1 | 0 | 0 | 1 | 0 weeks | 81.68 nm and 85.73 nm and 87.69 nm | 0.042 and 0.072 | 68.60 nm and 71.49 nm | 99.1% and 97.6% | 99.0% and 99.04% |  |  |  |  |  |  | CCCCC/C=C\C/C=C\CCCCCCCCC(CCCCCCCC/C=C\C/C=C\CCCCC)OC(=O)CCCN(C)C [MC3, D-Lin-MC3-DMA, reference compound] | 0.005 | 2.5 |  |  |  | F7 enzyme activity (Ratio using MC3 as 1) (F7; relative plasma F7 activity of MC3 LNP as 1): 1
2 | 1 | 5 | 5 | 5 weeks | 98.70 nm | 0.021 | 84.62 nm | 100.1% | 99.7% | 98.2 | 0.006 | 101.6 | ∘ | ∘ | 104.2 | CCCCCCCCC(CCCCC)C(=O)OCCCCCCC(O)(CCCCCCOC(=O)C(CCCCC)CCCCCCCC)CCCCN(CCC)CCC (stereo not drawn) [CL4F 10-5] |  | 3 | 1.06E+08 Avg Radiance [p/s/cm2/sr] | higher Fluc activity | 4.64E+06 Avg Radiance [p/s/cm2/sr] | encapsulation rate (%), 40° C. 1 M [5]: 98.5%; Particle size (nm), 40° C. 1 W [5]: 101.0 nm; encapsulation rate (%), 40° C. 1 W [5]: 98.3%
3 | 1 | 5 | 5 | 1 week weeks | 110.00 nm | 0.020 | 101.60 nm | 100.0% | 99.7% | 98.0 | 0.006 | 104.7 | ∘ | ∘ | 116.4 | CCCCCCC(CCCC)C(=O)OCCCCCCC(O)(CCCCCCOC(=O)C(CCCC)CCCCCC)CCCCN(CCC)CCC (stereo not drawn) [CL4F 8-4] |  | 5.6 | 6.09E+07 Avg Radiance [p/s/cm2/sr] | higher Fluc activity | 1.41E+07 Avg Radiance [p/s/cm2/sr] | encapsulation rate (%), 40° C. 1 M [5]: 98.1%; Particle size (nm), 40° C. 1 W [5]: 109.1 nm; encapsulation rate (%), 40° C. 1 W [5]: 97.8%
4 |  |  |  |  |  |  |  |  |  |  |  |  |  |  |  | CCCCCC/C=C\COC(=O)CCCCCCCC(CCCCCCCC(=O)OC/C=C\CCCCCC)OC(=O)CCCN(C)C [L319] | 0.01 |  |  |  |  | 
